Test system: human K562 cells
Assay: Human K562 growth inhibition assay
Assay type: cell-based
Conditions: for Antiproliferative effect on growth of human K562 cells (in words): 333 μM was the highest concentration tested; for IC50: Homo sapiens, K562, 48 h, read-out: Growth inhibition of human K562 cells IC50

Row | SMILES | Antiproliferative effect on growth of human K562 cells (in words) | IC50
1 | CO[C@@H](C(=O)NCC1CCCN(C(=O)C(C)C)C1)[C@H](O)[C@@H](O)[C@H](O)/C=C/C(C)(C)C (stereo partly drawn) [Compound 4, (2R,3R,4S,5R,E)-3,4,5-trihydroxy-N-((1-isobutyrylpiperidin-3-yl)methyl)-2-methoxy-8,8-dimethylnon-6-enamide] | no or weak activity | > 333 µM
2 | CO[C@@H](C(=O)NCC1CCCN(C(=O)C2CC2)C1)[C@H](O)[C@@H](O)[C@H](O)/C=C/C(C)(C)C (stereo partly drawn) [Compound 5, (2R,3R,4S,5R,E)-N-((1-(cyclopropanecarbonyl)piperidin-3-yl)methyl)-3,4,5-trihydroxy-2-methoxy-8,8-dimethylnon-6-enamide] | no or weak activity | > 333 µM
3 | CO[C@@H](C(=O)NCCC(c1ccccc1)c1ccco1)[C@H](O)[C@@H](O)[C@H](O)/C=C/C(C)(C)C (stereo partly drawn) [Compound 6, (2R,3R,4S,5R,E)-N-(3-(furan-2-yl)-3-phenylpropyl)-3,4,5-trihydroxy-2-methoxy-8,8-dimethylnon-6-enamide] | low and reproducible activity | 79.6 µM
4 | CO[C@@H](C(=O)NCCC(c1ccc(F)cc1)c1ccco1)[C@H](O)[C@@H](O)[C@H](O)/C=C/C(C)(C)C (stereo partly drawn) [Compound 7, (2R,3R,4S,5R,E)-N-(3-(4-fluorophenyl)-3-(furan-2-yl)propyl)-3,4,5-trihydroxy-2-methoxy-8,8-dimethylnon-6-enamide] | low and reproducible activity | 96.5 µM
5 | CO[C@@H](C(=O)NC1Cc2ccccc2C1)[C@H](O)[C@@H](O)[C@H](O)/C=C/C(C)(C)C [Compound 8, (2R,3R,4S,5R,E)-N-(2,3-dihydro-1H-inden-2-yl)-3,4,5-trihydroxy-2-methoxy-8,8-dimethylnon-6-enamide] | no or weak activity | > 333 µM
6 | CO[C@@H](C(=O)NCC(N)=O)[C@H](O)[C@@H](O)[C@H](O)/C=C/C(C)(C)C [Compound 9, (2R,3R,4S,5R,E)-N-(2-amino-2-oxoethyl)-3,4,5-trihydroxy-2-methoxy-8,8-dimethylnon-6-enamide] | no or weak activity | > 333 µM
7 | CO[C@@H](C(=O)NCCOc1c(C)cc(C)cc1C)[C@H](O)[C@@H](O)[C@H](O)/C=C/C(C)(C)C [Compound 10, (2R,3R,4S,5R,E)-3,4,5-trihydroxy-N-(2-(mesityloxy)ethyl)-2-methoxy-8,8-dimethylnon-6-enamide] | low and reproducible activity | 37.8 µM
